Test results taken from patent US20060111346A1, “Methods of modulating high-density lipoprotein cholesterol levels and pharmaceutical formulations for the same” (Fazix Corporation., priority 2004, published 2006).
Read-outs that look alike come from different tables or passages of the source.

Experiments:
[1] = test system: Apo*E3Leiden.hCETP mice; settings: for HDL cholesterol relative to control group / HDL phospholipids relative to control group / LDL cholesterol relative to control group / LDL phospholipids relative to control group: pooled blood
Experimental: A test group of 36 female transgenic Apo*E3Leiden/hCETP mice were fed a high fat western-type diet (containing by weight 15% coconut oil and 0.1% cholesterol) to increase plasma cholesterol levels to around 10 mM. After three weeks the mice were subdivided into 6 groups of 6 mice each, matched for plasma cholesterol, triglycerides and age.
Oral gavage at each separate concentration was administered with an aqueous solution containing by volume 5% ethanol, 4% PEG-400, 1% cremaphor over a period of 1 week per concentration. At the end of each 1 week treatment period, blood samples were collected after a 4 hours fasting period. Mice treated by oral gavage were left alone for 1 week after each collection of blood samples.
For each subcutaneous depot injection experiment, the appropriate dose in sesame oil solution was injected once and blood samples were collected 24 hours after injection (at the end of a 4 hour fasting period). Mice treated by subcutaneous injection were left alone for 13 days after each collection of blood samples.
Blood samples from untreated test animals and from animals treated by gavage or subcutaneous depot injection were pooled separately and a lipoprotein profile was measured by AKTA fast protein liquid chromatography (FPLC)(http://www.gmi-inc.com/BioTechLab/Pharmacia%20AKTA.htm) to determine the level of cholesterol and phospholipid associated with HDL and LDL. […] Additionally, food intake levels (per group), body weights, cholesterol levels, and triglyceride levels, were monitored.

[2] = biological target: T1, CETP (Oryctolagus cuniculus, UniProt P22687); test: CETP Inhibitor Drug Screening Kit (Biovision K602-100), cholesterol transfer activity; format: biochemical; settings: 100 μM
T1 construct: purchased Biovision Research Products K602-100
T1 sequence (P22687 2-497): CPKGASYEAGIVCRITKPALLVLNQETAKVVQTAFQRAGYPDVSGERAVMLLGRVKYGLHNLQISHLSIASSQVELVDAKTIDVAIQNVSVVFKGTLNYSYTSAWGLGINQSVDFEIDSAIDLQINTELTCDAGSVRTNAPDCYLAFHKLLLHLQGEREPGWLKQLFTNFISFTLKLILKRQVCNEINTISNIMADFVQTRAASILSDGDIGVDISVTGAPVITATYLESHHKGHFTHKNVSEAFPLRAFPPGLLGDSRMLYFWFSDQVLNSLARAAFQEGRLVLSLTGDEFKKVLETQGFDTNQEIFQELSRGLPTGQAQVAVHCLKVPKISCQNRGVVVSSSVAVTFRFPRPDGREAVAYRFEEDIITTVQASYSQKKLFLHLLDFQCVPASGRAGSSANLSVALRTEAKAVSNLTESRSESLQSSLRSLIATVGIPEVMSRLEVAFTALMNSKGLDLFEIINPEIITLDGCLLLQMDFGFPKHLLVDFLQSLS
Experimental: The inhibitory activity of FZX-CETP-001 was determined in vitro using a commercially available CETP Inhibitor Drug Screening Kit (catalog # K602-100). The kit is available from Biovision Research Products, located in Mountain View, Calif. USA. Information regarding the kit is available at the following url addresses: http://www.biovisionlabs.com/cetp-pltp.html; and http://www.biovision.com/pdf/K602-100.pdf
Following the directions provided with the kit, FZX-CETP-001 was assayed for inhibitory activity.

[3] = oral gavage 0.1 mg/kg/day, 1 week
[4] = oral gavage 0.3 mg/kg/day, 1 week
[5] = oral gavage 1.0 mg/kg/day, 1 week
[6] = serum cholesterol profiles, FIGS. 2A-2D, increasing dose
[7] = serum phospholipid profiles, increasing dose
[8] = subcutaneous depot injection 0.3 mg/kg, 24 hours after injection
[9] = subcutaneous depot injection 1.0 mg/kg, 24 hours after injection
[10] = subcutaneous depot injection 3.0 mg/kg, 24 hours after injection

Structure (SMILES): CC(C)(Oc1ccc(Cl)cc1)C(=O)OCCN1CCN(CCCN2c3ccccc3Sc3ccc(C(F)(F)F)cc32)CC1 [FZX-CETP-0001, Fluphenazine 4-chlorophenoxyisobutyric acid ester]
- HDL-C to LDL-C ratio ([1]; lowest tested dosage of 0.1 mg/kg/day by gavage, treated vs untreated control): marked increase
- control parameters (food intake levels, body weights, cholesterol levels, triglyceride levels) ([1]; mouse, in vivo): no statistically significant difference
- HDL cholesterol relative to control group [1, 3]: 204%
- HDL phospholipids relative to control group [1, 3]: 128%
- LDL cholesterol relative to control group [1, 3]: 81%
- LDL phospholipids relative to control group [1, 3]: 81%
- HDL cholesterol relative to control group [1, 4]: 121%
- HDL phospholipids relative to control group [1, 4]: 136%
- LDL cholesterol relative to control group [1, 4]: 94%
- LDL phospholipids relative to control group [1, 4]: 92%
- HDL cholesterol relative to control group [1, 5]: 269%
- HDL phospholipids relative to control group [1, 5]: 129%
- LDL cholesterol relative to control group [1, 5]: 80%
- LDL phospholipids relative to control group [1, 5]: 96%
- ratio of HDL-C level in the treated to untreated mice [1, 6]: increases
- ratio of LDL-C level (total area under the curve) in treated to untreated mice [1, 6]: decreases with increasing dose
- ratio of HDL-C level in the treated to untreated mice [1, 7]: increases
- ratio of LDL-C phospholipid level (total area under the curve) in treated to untreated mice [1, 7]: decreases with increasing dose
- HDL cholesterol relative to control group [1, 8]: 286%
- HDL phospholipids relative to control group [1, 8]: 141%
- LDL cholesterol relative to control group [1, 8]: 100%
- LDL phospholipids relative to control group [1, 8]: 71%
- HDL cholesterol relative to control group [1, 9]: 277%
- HDL phospholipids relative to control group [1, 9]: 173%
- LDL cholesterol relative to control group [1, 9]: 78%
- LDL phospholipids relative to control group [1, 9]: 56%
- HDL cholesterol relative to control group [1, 10]: 1119%
- HDL phospholipids relative to control group [1, 10]: 169%
- LDL cholesterol relative to control group [1, 10]: 55%
- LDL phospholipids relative to control group [1, 10]: 70%
- triglyceride level ([1]; subcutaneous injections at doses at or above 1 mg/kg): slightly reduced
- inhibition of CETP [2]: 100%
- Cholesterol Transfer Activity, Fluorescence Units ([2]; Average, N = 2): 8312 Fluorescence Units
